Results taken from patent US9907758B2, “Process for preparing solid lipid sustained release nanoparticles for delivery of vitamins” (Department of Biotechnology (DBT), priority 2012, dated 2018).
Read-outs that look alike come from different tables or passages of the source. Values belong to the compound of their own block, whether it stands above or below them.

What was measured:
[1] = In vivo pharmacokinetic studies, oral and subcutaneous; parameters: species or system male Wistar rats; settings: for AUC(0-t): plasma
Protocol: In vivo pharmacokinetic studies were performed using male Wistar rats weighing 250-300 g. The protocol was duly approved by the Institutional Animal Ethics Committee (IAEC) of Panjab University, Chandigarh, India. The animals were divided into four groups (n=6). Group 1 was administered 2.5 Lacs International units (IU) subcutaneous retinoic acid and vitamin D3 SLNs simultaneously, Group 2 was also simultaneously administered 2.5 Lacs IU free retinoic acid and vitamin D3. Group 3 was administered simultaneously 1 Lac IU oral Retinoic acid and vitamin D3 SLNs, Group 4 was administered simultaneously 1 Lac IU oral free Retinoic acid and vitamin D3. The blood samples (0.5 mL) were withdrawn from sinus under clavicle and, collected into heparinized micro-centrifuge tubes (containing […] of 1000 IU heparin/mL of blood) at 0.5 h, 1 h, 2 h, 4 h, 8 h, 12 h, 24 h, 48 h, 72 h, 96 h, 120 h, 144 h, 168 h. After each sampling, 1 mL of dextrose-normal saline was administered to prevent changes in the central compartment volume and electrolytes. Plasma was separated by centrifuging the blood samples at 4000 rpm for 10 min at 4° C. After centrifugation, the plasma obtained was stored at −20° C. until analysis.
500 microliter blank plasma was taken and into it added 20 microliter stock standard dilutions of different concentrations (0.01 mcg to 1 mcg) (vortex) and added 400 microliter of chilled ethanol (vortex) and to it was added 2 ml (n-Hexane:ethylacetate (90:10) (Vortex) and the same was kept at −20° C. for 5 min followed by Cold centrifuge at 5000 rpm for 5 min finally separating the upper layer carefully and drying the solution under rotavapour/nitrogen gas, after drying add 250 microliter of acetonitrile and inject the sample to HPLC/UPLC. The method was applied for extraction procedure for Pharmacokinetic samples after giving SLNs and free drugs of Retinoic acid and vitamin D3 formulation to rats as oral/subcutaneous routes and sampling time points (0.5 h, 1 h, 2 h, 4 h, 8 h, 12 h, 24 h, 48 h, 72 h, 96 h, 120 h, 144 h, 168 h).

[2] = in vivo; cited from earlier work

Cmax ([1]; male, Wistar, 1 Lac IU, plasma ATRA, oral administration, rat, read-out: Cmax): 151 ng/mL | AUC(0-t) ([1]; male, Wistar, rat, po, 1 Lac I.U, plasma ATRA, single dose oral, 1 Lac I.U, rat, read-out: AUC (0-T)): 357 ng·h/mL | AUC(0-t) ([1]; male, Wistar, rat, po, 1 Lac I.U, plasma ATRA, single dose oral, 1 Lac I.U, rat, read-out: AUC (T-∞)): 714 ng·h/mL | AUC(0-t) ([1]; male, Wistar, rat, po, 1 Lac IU, plasma ATRA, oral administration, rat, read-out: AUC0-t): 356 ng·h/mL | AUC(0-t) ([1]; male, Wistar, rat, po, 1 Lac IU, plasma ATRA, oral administration, rat, read-out: AUCt-∞): 713 ng·h/mL | AUC(0-t) ([1]; male, Wistar, rat, sc, 2.5 Lac I.U, plasma ATRA, single dose subcutaneous, 2.5 Lac I.U, rat, read-out: AUC (0-T)): 2820 ng·h/mL | AUC(0-t) ([1]; male, Wistar, rat, sc, 2.5 Lac I.U, plasma ATRA, single dose subcutaneous, 2.5 Lac I.U, rat, read-out: AUC (T-∞)): 2950 ng·h/mL | AUC(0-t) ([1]; male, Wistar, rat, sc, 2.5 Lacs IU, plasma ATRA, single dose subcutaneous, rat, read-out: AUC0-t): 2820 ng·h/mL | AUC(0-inf) ([1]; male, Wistar, sc, 2.5 Lacs IU, plasma ATRA, single dose subcutaneous, rat): 2950 ng·h/mL | Cmax ([1]; male, Wistar, sc, 2.5 Lacs IU, plasma ATRA, single dose subcutaneous, rat, read-out: Cmax): 1390 ng/mL | Cmax ([1]; male, Wistar, sc, plasma ATRA, single dose subcutaneous injection, 2.5 Lac I.U, rat, read-out: Cmax): 1400 ng/mL | half-life ([1]; male, Wistar, sc, plasma ATRA, single dose subcutaneous, 2.5 Lac I.U, rat): 57 min | Tmax ([1]; male, Wistar, sc, plasma ATRA, single dose subcutaneous, 2.5 Lac I.U, rat, read-out: Tmax): 30 min | half-life ([1]; male, Wistar, plasma ATRA, single dose oral, 1 Lac I.U, rat): 290 min | Cmax ([1]; male, Wistar, plasma ATRA, single dose oral, 1 Lac I.U, rat, read-out: Cmax): 151 ng/mL | Tmax ([1]; male, Wistar, plasma ATRA, single dose oral, 1 Lac I.U, rat, read-out: Tmax): 54 min | Kel ([1]; plasma ATRA, single dose oral, 1 Lac I.U, rat): 0.17 | Kel ([1]; plasma ATRA, single dose subcutaneous, 2.5 Lac I.U, rat): 0.74 | plasma ATRA dropped to an undetectable level at, after dosing ([1]; rat plasma): 4 h
Compound: CC1=C(/C=C/C(C)=C/C=C/C(C)=C/C(=O)O)C(C)(C)CCC1 [ATRA-S, all-trans retinoic acid]

Compound: C=C1CC[C@H](O)C/C1=C/C=C1\CCC[C@]2(C)[C@@H]([C@H](C)CCCC(C)C)CC[C@@H]12 [Vitamin D3-S, cholecalciferol]
Cmax ([1]; male, Wistar, rat, in vivo, po): < 25 ng/mL | Tmax ([1]; male, Wistar, rat, in vivo, po): 0 min | Cmax ([1]; male, Wistar, rat, in vivo, sc): < 25 ng/mL | Tmax ([1]; male, Wistar, rat, in vivo, sc): 0 min | Kel ([1]; plasma vitamin D3, single dose oral, 1 Lac IU, rat): 0.0 | Kel ([1]; plasma vitamin D3, single dose subcutaneous, 2.5 Lac I.U, rat): 0.0 | CL ([1]; rat, in vivo, po): 0.0 mL/h/g | T1/2 ([1]; rat, in vivo, po): 0 h | CL ([1]; rat, in vivo, sc): 0.0 mL/h/g | T1/2 ([1]; rat, in vivo, sc): 0 h

Compound: C=C1CC[C@H](O)C/C1=C/C=C1\CCC[C@]2(C)[C@@H]([C@H](C)CCCC(C)C)CC[C@@H]12 [vitamin D3, cholecalciferol]
Cmax in plasma [2]: not more than 75 ng/ml
